This is an account of results in article PMC3190057 (Food and chemical toxicology : an international journal …, 2011).

Values joined by “and” are separate entries in the source; they are usually repeats but may differ in a detail not shown here. Equal entries are not always repeated. Where only a bound is given, the exact number is not on record here.

Data set [1] relates to P-gp. As to the kind of experiment: in vitro. The conditions noted are these: human.
Data set [2] relates to P-gp. As to the kind of experiment: Immunofluorescence staining and imaging of membrane P-gp. Type of data set: cell-based, human. The conditions noted are these: LS-180 cells, 25 μM, 48 h, mean ± SD (n=4).
Data set [3] concerns P-gp. As to the kind of experiment: P-gp functional activity, rhodamine 123 uptake with or without 100 μM verapamil. Conditions: LS-180 cells; for increase in P-gp activity: 48 h; for Emax (fold ↑ in P-gp activity): Hill equation fit.
The test system of data set [4] is P-gp. As to the kind of experiment: In vitro induction of P-gp expression, Western blotting. Type of data set: cell-based, human. The conditions noted are these: LS-180 cells, 25 μM, 48 h, Western blot densitometry, P-gp/β-actin.
The conditions of data set [5]: human subjects, oral administration, cited from earlier work.
In the next data set the test system is LS-180 cells. As to the kind of experiment: Toxicity to LS-180 cells during the induction treatment. Type of data set: cell-based, human.

As to `C[C@H]1[C@H](C)CC[C@]2(C(=O)O)CC[C@]3(C)C(=CC[C@@H]4[C@@]5(C)C[C@@H](O)[C@H](O)[C@@](C)(CO)[C@@H]5CC[C@]43C)[C@H]12` [asiatic acid, Asiatic acid], the response with P-gp [1] was half-maximal at 11.3 µM (EC50 at 48 h). The “fold-increase in membrane P-gp expression compared to the control” value in the data set on P-gp [2] turned out to be 2.5 ± 0.95 fold. Further, in the data set with P-gp [3] (25 μM), the “increase in P-gp activity” value is on record as over 45%. Moreover, the “Emax (fold ↑ in P-gp activity)” value in the data set with P-gp [3] is given as 1.5 fold. Further, the “fold increase in the expression of P-gp protein compared to control” value in the data set on P-gp [4] is 2.3-3.0 fold and 2.6 fold.

Turning to `C/C=C(/C=O)[C@@H](CC=O)CC(=O)OCCc1ccc(O)cc1` [oleocanthal, (-)-Oleocanthal], a half-maximal response in the data set with P-gp [1] (EC50 at 48 h) required 14 µM. Besides, the “fold-increase in membrane P-gp expression compared to the control” value with P-gp [2] is 9.3 ± 0.37 fold. In addition, the “Emax (fold ↑ in P-gp activity)” value with P-gp [3] was 4.5 fold. Moreover, in the data set on P-gp [4], the “fold increase in the expression of P-gp protein compared to control” value is 2.3-3.0 fold and 2.3 fold.

`CO[C@H]1/C=C/O[C@@]2(C)Oc3c(C)c(O)c4c(O)c(c(/C=N/N5CCN(C)CC5)c(O)c4c3C2=O)NC(=O)/C(C)=C\C=C\[C@H](C)[C@H](O)[C@@H](C)[C@@H](O)[C@@H](C)[C@H](OC(C)=O)[C@@H]1C` [rifampicin, Rifampicin, reference compound]: the EC50 (in general, the concentration needed to bring the measured effect to its halfway point) at 48 h with P-gp [1] was found to be 26.8 µM. Also, the “increase in P-gp activity” value is 180% in the data set on P-gp [3] (5 μM) and 230% in the data set with P-gp [3] (25 μM). Further, the “Emax (fold ↑ in P-gp activity)” value in the data set with P-gp [3] worked out at 4.4 fold. Besides, the “fold increase in the expression of P-gp protein compared to control” value in the data set on P-gp [4] is listed as 5 fold. In data set [5] (ref Greiner et al., 1999), the “decrease in digoxin area under the plasma curve (AUC)” value is 30%. Besides, in data set [5] (ref Kim et al., 2008), the “decrease in risperidone area under the plasma curve (AUC)” value was 51%.

In the case of `CC(C)=CCC/C(C)=C/CC/C(C)=C/CC[C@]1(C)CCc2cc(O)c(C)c(C)c2O1` [γ-tocotrienol, γ-Tocotrienol], the EC50 at 48 h in the data set on P-gp [1] (LS-180 cells, probe rhodamine 123 (1 μg/mL), with verapamil 100 μM) amounted to 5.9 µM. For the same compound, the “fold-increase in membrane P-gp expression compared to the control” value in the data set with P-gp [2] turned out to be 4.6 ± 0.39 fold. The “concentration toxic to the cells” value with LS-180 cells was over 25 µM. In addition, the “increase in P-gp activity” value with P-gp [3] (10 μM) is on record as over 45%. For the same compound, in the data set with P-gp [3], the “Emax (fold ↑ in P-gp activity)” value stood at 1.7 fold. In the data set with P-gp [4], the “fold increase in the expression of P-gp protein compared to control” value is 2.3-3.0 fold and 2.5 fold.
